The text below walks through data of paper PMC12298629, “New Derivatives of Caracasine Acid with Anti-Leukemic Activity and Limited Effectiveness in Spheroid Cultures” (Pharmaceuticals, 2025).

The subject of one assay is CCRF-CEM. Description: Cytotoxic MTS assay, CCRF-CEM. It counts as cell-based. The note with it: CCRF-CEM, human leukemia cell line, 72 h, median of five assays. The source says: (§1) The cancer cell lines used in the cytotoxic assays were acquired from the American Tissue Culture Collection (ATCC) (Manassas, VA, USA) and maintained as described previously. The MRC-5 and BJ human fibroblasts were used as non-tumoral control cells. The (MRC-5 LD and BJ LD) are also human fibroblast cell lines resistant to doxorubicin. […] The Raji and Ramos cell lines correspond to B-cell leukemia. Other cells, such as U2OS, represent a child osteosarcoma, while HCT116 is a colorectal tumor cell line. (HCT116p53^−/−, Horizon Discovery Ltd., Cambridge, UK) is a similar cell line with its p53 gene knocked down, serving as a model of human cancer frequently associated with a poor prognosis. The cells were maintained in Nunc/corning 80 cm^2 plastic tissue culture flasks and cultured in a cell culture medium according to ATCC or Horizon recommendations (McCoy, DMEM/RPMI 1640 with 5 g/L glucose, 2 mM glutamine, 100 U/mL penicillin, […] streptomycin, 10% fetal calf serum, and NaHCO3). The compounds were freshly dissolved in DMSO. The final concentration of DMSO was 0.01% in the cell culture.
(§2) The in vitro cytotoxicity of compounds (1–7) was assessed using the standard 3-(4,5-dimethyl-thiazol-2yl)-5-(3-carboxymethoxyphenyl)-2-(sulfophenyl)-2H-tetrazolium (MTS). The assay was performed at the Institute of Molecular and Translational Medicine using a robotic platform (High-ResBiosolutions, Beverly, MA, USA). Cell suspensions were prepared and diluted according to the specific cell type and the expected target cell density (25,000–35,000 cells/mL, based on cell growth characteristics). An automatic pipettor (30 μL) was used to add cells into 384-well microtiter plates. All tested compounds were dissolved in 100% DMSO, and four-fold dilutions of the intended test concentrations were added in 0.15 μL aliquots at time zero to the microtiter plate wells by the echo acoustic non-contact liquid handler Echo550 (Labcyte, San Jose, CA, USA). The assays were accomplished in technical duplicates and at least three biological replicates. The cells were incubated with the tested compound for 72 h at 37 °C in a 5% CO2 atmosphere with 100% humidity. At the end of the incubation period, cells were assayed using the MTS test. Aliquots (5 μL) of the MTS stock solution were pipetted into each well and incubated for 1–4 h. After this incubation period, the optical density (OD) was measured at 490 nm using an Envision reader (PerkinElmer, Waltham, MA, USA). Tumor cell survival (TCS) was calculated using the following equation: TCS = (OD drug-exposed well/mean OD control wells) × 100%. The IC50 value, representing the concentration of the compound lethal to 50% of the tumor cells, was calculated from the corresponding dose-response curves using Dotmatics software (Updated version 2022, London, UK). After three days of incubation on the cancer cell lines and normal fibroblasts, the […] (IC50) were obtained. Five assays were performed for each cell line. The standard error of the assays was lower than 10%, as assessed by the triplicate assays.
For orientation: Formazan colour is commonly taken as a measure of viable cells.

In a further assay the test system is HCT116KO53 spheroids. As to the kind of experiment: Spheroid viability assay (CellTiter-Glo 3D), HCT116 p53 KO spheroids. It counts as cell-based. The note with it: HCT-116, human tumors spheroids, 72 h, 100 pM to 50 μM. The protocol:
Spheroid culture aims to analyze the drug’s effect on complex structures resembling solid tumors. The spheroids were prepared using the specific nonadherent plates for spheroid formation (Nunc Sphera, Thermo Fisher, Waltham, MA, USA) according to the simple protocol outlined by the manufacturer. The cell lines HCT116 parental, HCT116KOTp53, A549, and U2OS were cultured at a density of 2500 cells per well using medium containing 10% fetal calf serum and antibiotics: McCoy’s 5A medium for HCT116, F-12K (Kaighn’s Modified) for A549, and Dulbecco’s Modified Eagle Medium (DMEM). The cells were grown in culture for 48 h as recommended by the manufacturer and as described by Das et al. and Muñoz-Garcia et al..
The cell viability of the treated spheroids was assessed using the kit CellTiter-Glo 3D (Promega Corporation, Madison, WI, USA). The kit is designed to measure ATP as an indicator of viability, generating a luminescent readout that is more sensitive than colorimetric or fluorescence-based methods. The spheroids were cultivated with compounds at concentrations ranging from 100 pM to 50 μM in triplicate for 72 h, and the luminescence was measured using the Enspire apparatus (PerkinElmer). A standard curve was performed for each analysis as recommended by the manufacturer.
For orientation: Cellular ATP, detected with luciferase, serves as a proxy for viable cell number.

Assay [1] relates to different cell lines (CCRF-CEM, K562, Raji, Ramos, HCT116, HCT116 p53KO, A549, U2OS). Description: Peroxide formation assessment using DCFDA. It counts as cell-based, human. The note with it: compounds at 5-fold the IC50; percentage increase versus negative control. The protocol: The assessment of peroxides was performed as described by Figuero et al. with some modifications. Briefly, the different cell lines, at 10,000 cells per well, were incubated in a sterile 96-well glass-bottom plate from Celvis (München, Germany), which features a black polystyrene frame with high-quality #1.5 glass, suitable for fluorescent assessment. After one hour of incubation in the incubator at 37 °C, 5% CO2, 50 µL of 20 µM 2′,7′-dichlorofluorescein diacetate (DCFDA), Thermo Fisher, was added. The cells were incubated for an additional 30 min to allow for the internalization of the fluorophore. Then, 50 µL of the compounds diluted in media at a concentration 5-fold the IC50 calculated in cytotoxic studies, were added to each well, and the plates were read on an Enspire (PerkinElmer). Fluorescence was measured using the following parameters: excitation at 495 nm and emission at 530 nm. The temperature was maintained at 37 °C, and the readings were taken in bottom mode with three readings per well. Wells containing only RPMI, with 10% FCS, were included as background negative controls. Each experiment was repeated three times on separate occasions (n = 3). Cisplatin was used as a positive control, and the values were calculated based on cells without stimuli (negative control for each cell line). Hydrogen peroxide was used as a possible early marker for apoptosis as described by Miyazato et al..

The test system of a further assay is HCT116 par. As to the kind of experiment: Cytotoxic MTS assay, HCT116 parental 2D. The note with it: HCT-116, human tumors 2D, 72 h, median of five assays. It counts as cell-based.
Text: as §1, §2

For a further assay, the system named is HCT116KO53. As to the kind of experiment: Cytotoxic MTS assay, HCT116 p53 knockout 2D. It counts as cell-based. The note with it: HCT-116, human tumors 2D, 72 h, median of five assays.
Text: as §1, §2

The next assay relates to BJ. Description: Cytotoxic MTS assay, BJ fibroblasts. It counts as cell-based. The note with it: BJ, human fibroblasts, 72 h, median of five assays.
Text: as §1, §2

Turning to `C=C(C)C1CCC23CC(CCC2C1(C)CCC(=O)O)C(C)C3=O` (single isomer, unassigned; ent-3) [Compound 5, Ent-3,4-Seco-15-Oxo-Kaur-4(19)-en-3-Oic Acid], the IC50 with CCRF-CEM, in the assay on HCT116KO53 spheroids, in the assay on HCT116 par, in the assay with HCT116KO53 and in the assay on BJ was over 50 µM in each case. Further, the “Peroxide formation (DCFDA)” value in assay [1] was “did not induce peroxide formation”.

`C=C(C)C1CCC23CC(CCC2C1(C)CCC(=O)OC(C)=O)C(C)C3=O` (single isomer, unassigned; ent-3) [Compound 6, Ent-3,4-Seco-15-Oxo-Kaur-4(19)-en-Acetic Anhydride]: the IC50 in the assay with CCRF-CEM, in the assay on HCT116KO53 spheroids, in the assay on HCT116 par, in the assay on HCT116KO53 and in the assay with BJ was over 50 µM throughout. Also, in assay [1], the “Peroxide formation (DCFDA)” value was “did not induce peroxide formation”.

With `C=C1C(=O)C23CCC(C(=C)C)C(C)(CCC(=O)OC)C2CCC1C3` (stereo not drawn) [Compound 2, Caracasine], the IC50 (commonly the concentration needed to halve the response being measured) is 0.86 µM in the assay with CCRF-CEM; over 50 µM with HCT116KO53 spheroids; 2.02 µM in the assay on HCT116 par; 1.91 µM in the assay with HCT116KO53; 7.28 µM in the assay on BJ. Moreover, the “Peroxide formation (DCFDA)” value in assay [1] was “least active”.

On to `C=C1C(=O)C23CCC(C(=C)C)C(C)(CCC(=O)OC(C)=O)C2CCC1C3` (stereo not drawn) [Compound 7, Caracasine-Acetic Anhydride], for which the IC50 in the assay on CCRF-CEM is 0.45 µM; in the assay on HCT116KO53 spheroids, over 50 µM; in the assay with HCT116 par, 2.12 µM; with HCT116KO53, 1.91 µM; in the assay with BJ, 7.68 µM. Besides, in assay [1], the “Peroxide formation (DCFDA)” value is on record as “most active”.
